# Measured values as given in US6417393B1, “Phenyl derivatives containing an acidic group, their preparation and their use as chloride channel blockers” (Neurosearch A/S, priority 1996, dated 2002).
# Tests used:
# [1] = test system: erythrocyte chloride channels; assay: Cl- conductance (GCl) from concomitant measurements of conductive Cl- netfluxes and membrane potentials in suspensions of normal erythrocytes; type: cell-based, Human; conditions: suspension of normal erythrocytes; read-out: IC50-value for block of GCl
# Text: (§1) The compounds of the present invention are potent blockers of chloride channels in normal as well as sickle cell erythrocytes.
# (§2) All dose-response experiments were therefore performed by concomitant measurements of conductive netfluxes of Cl^− (JCl) and membrane potentials (Vm) in suspensions of erythrocytes (Bennekou, P. and Christophersen, P. (1986), Flux ratio of Valinomycin—Mediated K^+ Fluxes across the Human Red Cell Membrane in the presence of the Protronophore CCCP. J. Membrane Biol. 93, 221-227. ). The membrane Cl^−-conductances were calculated by the following equation (Hodgkin, A. L. and Huxley, A. F. (1952) The components of membrane conductance in the giant axon of loligo. J. Physiol. Lond. 116, 449-472): [formula]
# (§3) where F is the Faraday constant and ECl is the Nernst potential for the Cl-ion.
# mice = assay: Toxicity to mice; type: in vivo; conditions: up to 150 mg/kg i.p. and i.v.
# Procedure: N-(3-Trifluoromethylphenyl)-N′-(2-carboxyphenyl) urea was non-toxic to mice at concentrations up to 150 mg/kg i.p. and i.v.
# sickle erythrocytes = assay: K+ flux from sickle erythrocytes, basal and deoxygenation induced (extracellular K+-concentration vs time); type: cell-based; conditions: 10 μM; oxygenated sickle erythrocytes
# Text: Deoxygenation induced permeability increases of sickle cells were estimated by measuring the extracellular K^+-concentration vs time. […] The K^+ flux from oxygenated sickle erythrocytes was 2-3 times higher than from normal erythrocytes and these fluxes was accelerated 4-8 times upon deoxygenation.
# [2] = test system: chloride channels of sickle cell erythrocytes; assay: Cl- conductance (GCl) in oxygenated and deoxygenated homozygoteous sickle cell erythrocytes; type: cell-based, Human; conditions: oxygenated as well as deoxygenated homozygoteous sickle cell erythrocytes; compared with normal erythrocytes
# Text: as §1, §2, §3
# erythrocytes = assay: Valinomycin induced cell volume loss (relative volume of packed cells); type: cell-based; conditions: valinomycin for 5 min
# Procedure: Inducing a massive water and salt loss (KCI) by addition the K^+-ionophore valinomycin to the suspension for 5 min reduced the cell volume by 26%.
structure (smiles),measurement,setting,value
O=C(Nc1cccc(C(F)(F)F)c1)Nc1ccccc1C(=O)O [3′-Trifluoromethylphenyl-2-carboxyphenyl Urea],IC50,[1],600 nM
same,toxicity to mice,mice,non-toxic
same,basal K+-flux from sickle erythrocytes,sickle erythrocytes,normalised
same,block of GCl from sickle cell erythrocytes,[2],equipotently blocked
same,IC50,"erythrocytes; Erythrocyte, 5 min, read-out: IC50-value for reduction of valinomycin induced volume loss",1200 nM
same,cell volume loss remaining in presence of compound,erythrocytes; volume loss without compound 26%,7%
